Measurements published in PubChem BioAssay AID1508612.

Assay: passive permeability, PAMPA, ADME assay (AID 1508612)
Conditions: pH 7.4, 30.0 min, 50.0 µM

Row | Structure (SMILES) | Papp
1 | Fc1ccc(Cc2nc3nccc(-c4cccs4)n3n2)cc1 | > 10000 nm/s
2 | COc1cccc(-n2nc(C(=O)O)cc2-c2ccc(C3CCCCC3)c(Cl)c2)c1 | > 10000 nm/s
3 | COc1ccc(N(C)C(=O)c2cc3c(s2)-c2ccccc2OC3)cc1 | 8220 nm/s
4 | O=C(Cc1ccc(-c2csc(Nc3ccc(F)cc3)n2)s1)N1CCOCC1 | > 10000 nm/s
5 | O=C(NCCN1CCOCC1)C1CC(=O)N(c2n[nH]c3cc(Br)ccc23)C1 (configuration not stated) | 18 nm/s
6 | COc1c(O)ccc2c1CN1CCc3cc4c(cc3[C@@H]1C2)OCO4 | > 10000 nm/s
7 | Cc1ccc(C(=O)N2CCc3sc(C(=O)NC(C)c4ccccc4)cc3C2)cc1 (configuration not stated) | 7990 nm/s
8 | NC(=O)C1CCN(c2nc(-c3ccccc3F)cs2)CC1 | 5580 nm/s
9 | O=C(Nc1ccc2c(N3CCCCC3)ncnc2c1)c1cc(F)cc(F)c1 | > 10000 nm/s
10 | CCCCn1cc2c(c1-c1ccc(Br)cc1)c(=O)n(C)c(=O)n2C | > 10000 nm/s
11 | O=S(=O)(Nc1nccs1)c1ccc(Nc2nc(-c3ccc(F)cc3)cs2)cc1 | 106 nm/s
12 | Cn1c(CN2CCCC2)nc2cc(NC(=O)COc3ccc(Cl)cc3)ccc21 | > 10000 nm/s
13 | Cc1nnc2n1-c1ccc(Cl)cc1C(c1ccccc1)=NC2 | 1250 nm/s
14 | Cc1cnc(-c2ccccc2C(F)F)nc1NCc1ccc(-n2ccnn2)cc1 | > 10000 nm/s
15 | CC(=O)c1c(C)oc2ccc(N(C(=O)Oc3ccccc3)S(=O)(=O)c3ccccc3)cc12 | > 10000 nm/s
16 | COc1ccnc(NC(=S)N2CCN(c3cc(C(F)(F)F)cc(C(F)(F)F)c3)CC2)c1 | 3730 nm/s
17 | CN1C(=O)CN=C(c2ccc[nH]2)c2cc(Cl)ccc21 | 7140 nm/s
18 | Cn1nnnc1Sc1ncnc2scc(Br)c12 | 1770 nm/s
19 | CCCCN1CCC[C@H]1CNC(=O)c1cc(C#N)c2ccccc2c1OC | > 10000 nm/s
20 | Cc1ccc2c(c1)[nH]c1c(N3CCN(Cc4ccccc4)CC3)ncnc12 | > 10000 nm/s
21 | Cc1nn(CCc2nc(-c3ccccc3)cs2)c2[nH]c(=O)cc(C(F)(F)F)c12 | 4260 nm/s
22 | O=c1c(-c2ccc(O)cc2)coc2cc(O)ccc12 | < 10 nm/s

Row | Structure (SMILES) | Papp
23 | Oc1ccc(C(=S)N2CCN(c3cccc(Cl)c3)CC2)cc1 | 6770 nm/s
24 | O=C(CSc1nc(-c2ccc(F)cc2)[nH]c1-c1ccc(F)cc1)Nc1ccc2c(c1)OCCO2 | 110 nm/s
25 | CCOc1ccc(C(C)CNC(=O)c2cc3sccc3n2Cc2ccccc2)cc1OCC (configuration not stated) | > 10000 nm/s
26 | Cn1c(=O)cc(C(=O)NC2CCCc3c2[nH]c2c(Cl)cccc32)c2ccccc21 (configuration not stated) | 680 nm/s
27 | Nc1nc2c(s1)C(c1ccc(F)c(F)c1)CC(=O)N2 (configuration not stated) | 2650 nm/s
28 | Cc1ccc(S(=O)(=O)Nc2cc(Br)ccc2C(=O)Nc2nc(-c3ccccc3)cs2)cc1 | 77.1 nm/s
29 | COc1cc(-c2nc(Nc3ccc(F)c(F)c3)c3ccccc3n2)cc(OC)n1 | 265 nm/s
30 | Cc1ccc(CN2C(=O)C(O)(CC(=O)c3ccc(C)cc3)c3ccccc32)cc1 (configuration not stated) | 8020 nm/s
31 | CCN(c1ccccc1)S(=O)(=O)c1c(C)nc2scc(C)n2c1=O | 6150 nm/s
32 | O=C1Nc2ccccc2/C1=C\c1ccc(O)c(F)c1 | 3430 nm/s
33 | Cc1ccc(C(N)=O)cc1Nc1nccc(-c2cn(C(C)C)c3cnccc23)n1 | 8770 nm/s
34 | COc1ccc(CN(C2CCCCC2C)S(=O)(=O)c2ccc(S(=O)(=O)N(C)C)cc2)cc1OC (configuration not stated) | 188 nm/s
35 | O=C(NCCCn1ccnc1)c1nc(-c2ccccc2)cc2[nH]ccc12 | 5970 nm/s
36 | Oc1ccc2[nH]cc(CCCCN3CC=C(c4ccccc4)CC3)c2c1 | > 10000 nm/s
37 | Cc1cn2nc(-c3nc(C4CCCN(C(=O)c5ccccc5)C4)no3)cc2c(=O)[nH]1 (configuration not stated) | 1360 nm/s
38 | O=[S+]([O-])(Nc1ccc(C2CCNCC2)cc1)c1ccc(NCc2ccc(Br)cc2O)cc1 | 63 nm/s
39 | COc1cc(Nc2nc(-c3ccncc3)nc3ccccc23)ccc1F | 4450 nm/s
40 | Cc1ccc(S(=O)(=O)Nc2cnccc2C(=O)Nc2ccc(N3CCOCC3)cc2)cc1 | 533 nm/s
41 | CC(NCc1ccc2c(c1)nc(NC(=O)c1ccc(-c3cn[nH]c3)s1)n2CC(C)(C)O)C(C)(C)C (configuration not stated) | 8200 nm/s
42 | CCOc1ccc(OCC)c(NC(=O)C(NS(=O)(=O)c2ccc(Br)s2)c2ccccc2)c1 (configuration not stated) | 11 nm/s
43 | O=c1c2ccccc2nc2n1CCC2 | 442 nm/s
44 | O=C1CCCC2=C1C(C1CCCCC1Cl)N=C(NC1NC3CCCCC3S1)N2 (configuration not stated) | 1610 nm/s

Row | Structure (SMILES) | Papp
45 | O=C(NCCc1ccccc1)C1CCN(c2nc(-c3ccc(Br)cc3)cs2)CC1 | < 10 nm/s
46 | N#Cc1cnc(NS(=O)(=O)c2ccc(NC(=O)Cc3ccc(F)c(Cl)c3)cc2)s1 | < 10 nm/s
47 | Cc1cc(C)nc(NC(=S)N2CCN(c3ccc4nsnc4c3)CC2)c1 | 7070 nm/s
48 | COc1cc2c(Oc3ccc(-c4cnc(Nc5ccc(F)cc5)n(C)c4=O)cc3F)ccnc2cc1OCCCN1CCOCC1 | 929 nm/s
49 | Cc1cc(S(=O)(=O)Nc2cnccc2C(=O)Nc2nc(-c3ccccc3)cs2)c(C)o1 | 7680 nm/s
50 | O=C(NCc1ccccc1)c1cn2cc(-c3ccccc3)sc2n1 | > 10000 nm/s
51 | O=C1Nc2c(Cl)cccc2/C1=C\c1cc(Cl)c(O)c(Cl)c1 | 588 nm/s
52 | NC(=O)C1CCN(c2ncc(-c3ccc4c(c3)OCO4)s2)CC1 | 6920 nm/s
53 | CCOc1ccccc1C(=O)Nc1ccncc1C(=O)Nc1cccc(S(=O)(=O)C(F)(F)F)c1 | 995 nm/s
54 | CC(C)(N)C(=O)N[C@H](COCc1ccccc1)C(=O)N1CCC2(CC1)CN(S(C)(=O)=O)c1ccccc12 | 8190 nm/s
55 | O=C(c1ccccc1)N1CCC(c2nn(-c3ccc(F)cc3)c(=O)[nH]2)CC1 | 6790 nm/s
56 | COc1cccc(CNc2ccc(S(=O)(=O)Nc3ccccn3)cc2)c1O | 5860 nm/s
57 | COc1ccc2nc(C)cc(Nc3ccc(Cl)c(Cl)c3)c2c1 | > 10000 nm/s
58 | c1ccc(-c2cn[nH]c2)cc1 | 2880 nm/s
59 | CC(=O)NC(c1cccs1)c1cc(Br)c2cccnc2c1O (configuration not stated) | 730 nm/s
60 | Fc1ccc(Nc2nc(-c3ccncc3)ncc2-c2ccccc2)cc1F | < 10 nm/s
61 | Cc1cn2c(-c3cn[nH]c3)cnc2c(Nc2ccc(C(=O)N3CCNCC3)cc2F)n1 | < 10 nm/s
62 | CCc1nnc(NC(=O)c2nc(S(=O)(=O)Cc3ccc(C)cc3)ncc2Cl)s1 | 329 nm/s
63 | O=C(Nc1nc(-c2ccc(F)cc2)cs1)c1ccncc1NS(=O)(=O)c1ccccc1Cl | > 10000 nm/s
64 | CC[C@@H]1C(=O)N(C)c2cnc(Nc3ccc(C(=O)NC4CCN(C)CC4)cc3OC)nc2N1C1CCCC1 | 5610 nm/s
65 | CCOc1ccc(CCN(C)C(=O)c2cc3sccc3n2Cc2ccccc2)cc1OCC | > 10000 nm/s
66 | C/C=C1/CN2CC[C@@]34c5ccccc5N(C)[C@@H]3[C@@H]2C[C@@H]1[C@H]4C(=O)OC | 8950 nm/s

Row | Structure (SMILES) | Papp
67 | O=C(Cc1ccc(Cl)cc1)Nc1cnccc1C(=O)O | 70 nm/s
68 | C=C[C@@]1(C)C[C@H](OC(=O)CSC(C)(C)CNC(=O)[C@@H](N)C(C)C)[C@@]2(C)C(C)CC[C@@]3(CCC(=O)[C@@H]32)[C@H](C)[C@H]1O (some centres not stated) | > 10000 nm/s
69 | CC(C)(C)C1CCc2[nH]c3ccccc3c(=O)c2C1 (configuration not stated) | 3560 nm/s
70 | Cc1cc(C)cc(C(=O)Nc2ccc3c(N4CCCC4)ncnc3c2)c1 | > 10000 nm/s
71 | COc1cc(/C=C(\C#N)C(=O)c2ccc(O)c(O)c2)cc(I)c1O | < 10 nm/s
72 | O=C(O)c1ccnc2cc(C(OCC3CCC(F)(F)CC3)c3ccccc3Cl)[nH]c12 (configuration not stated) | 756 nm/s
73 | COc1ccc(-n2nc(C3CCN(C(=O)Cc4ccc(F)cc4)CC3)[nH]c2=O)cc1 | 5400 nm/s
74 | O=c1[nH]nc(Sc2ncc([N+](=O)[O-])s2)n1-c1ccc2c(c1)OCCO2 | 1370 nm/s
75 | O=C(Nc1cn[nH]c1-c1nc2ccc(CN3CCOCC3)cc2[nH]1)NC1CC1 | 50.7 nm/s
76 | Cc1ccc(S(=O)(=O)Nc2cnccc2C(=O)Nc2ccccc2)cc1 | 1230 nm/s
77 | O=C1Nc2ccccc2/C1=C\c1ccc(O)cc1 | 7550 nm/s
78 | COc1ccccc1N1CCN(C2CCCCC2NS(=O)(=O)c2ccccc2)CC1 (configuration not stated) | > 10000 nm/s
79 | COc1ccc(Nc2cc(C)nc(-n3nc(C)cc3C)n2)cc1Cl | > 10000 nm/s
80 | CCC[C@@H]1CN(C(=O)c2ccc(-c3ccc(C)o3)cc2)C[C@H]1NC(C)=O | > 10000 nm/s
81 | CCOC(=O)[C@H]1O[C@H]1C(=O)N[C@@H](CC(C)C)C(=O)NCCC(C)C | 890 nm/s
82 | COc1cccc(CNc2ccc([S+](=O)([O-])Nc3cc4ccccc4s3)cc2)c1O | 8880 nm/s
83 | Cc1ccnc(NC(=S)N2CCN(c3cccc(C(F)(F)F)c3)CC2)c1 | > 10000 nm/s
84 | COc1ccccc1-c1nnc2sc(-c3ccc(N(C)C)cc3)nn12 | 2780 nm/s
85 | CN(C)c1cccc(-c2nnc(N3CCC(C(N)=O)CC3)s2)c1 | 1190 nm/s
86 | CCOc1cc2ncc(C#N)c(Nc3ccc(OCc4ccccn4)c(Cl)c3)c2cc1NC(=O)C=CCN(C)C | < 10 nm/s
87 | CCOc1ccc(C2c3c(oc4ccc(C)cc4c3=O)C(=O)N2CCCN(C)C)cc1 (configuration not stated) | 5160 nm/s
88 | O=C(c1ccncc1)N1CCC2(CCCN(C(c3ccccc3)c3ccccc3)C2)CC1 | > 10000 nm/s

Row | Structure (SMILES) | Papp
89 | COc1cc(-c2ccnc3c2c(C)nn3-c2cccc(C(F)(F)F)c2)ccc1O | 931 nm/s
90 | COc1cc(-c2nc(Nc3ccc(F)c(F)c3)c3ccccc3n2)ccn1 | 225 nm/s
91 | CCOc1ccc(CCNC(=O)c2cc3ncccc3n2Cc2cccc(C)n2)cc1OCC | 4910 nm/s
92 | CCn1ncc(NC(=O)Cn2ncc3cc(-c4cccc(OC)c4)ccc32)n1 | > 10000 nm/s
93 | CC1(C)CC2CC(C)(CN2S(=O)(=O)c2ccc(C(=O)Nc3ccc(Cl)cc3)cc2)C1 (configuration not stated) | > 10000 nm/s
94 | NC(=O)C1CCN(c2nc(-c3ccccc3C(F)(F)F)cs2)CC1 | 5440 nm/s
95 | O=C(Nc1ccc(S(=O)(=O)Nc2nccs2)cc1)c1cccc2ccccc12 | 119 nm/s
96 | O=C1CCCC2=C1C(c1[nH]ncc1Cl)N=C(Nc1nc3cc(F)ccc3o1)N2 (configuration not stated) | 6470 nm/s
97 | CC(C)NC(=O)c1nc(-c2ccc(Cl)nc2)c2ccccn12 | > 10000 nm/s
98 | CCn1c(SCc2ccc(C#N)cc2)nnc1-c1cccc(Cl)c1 | 9240 nm/s
99 | c1ccc2c(Nc3ccn[nH]3)nc(-c3ccncc3)nc2c1 | 8800 nm/s
100 | O=S(=O)(Nc1cccc2ccncc12)c1ccc(NCc2cccc(Cl)c2O)cc1 | > 10000 nm/s
101 | CCc1cccc(NC(=O)CSc2nc3ccccc3nc2N2CCCCC2)c1 | 3220 nm/s
102 | O=S(=O)(Nc1ccccc1)c1ccc(NCc2cccc(Cl)c2O)cc1 | 4870 nm/s
103 | CNS(=O)(=O)c1cc(-c2nn3c(C)nnc3c3ccccc23)ccc1C | 1460 nm/s
104 | C#C[C@]1(OC(C)=O)CC[C@H]2[C@@H]3CCC4=C/C(=N/O)CC[C@@H]4[C@H]3CC[C@@]21CC | 8580 nm/s
105 | COc1ccc2c3c([nH]c2c1)C1CC2C(CC(O)C(OC)C2CO)CN1CC3 (configuration not stated) | 32 nm/s
106 | Cc1ccnc(NC(=S)N2CCN(c3ncc(C(F)(F)F)cc3Cl)CC2)c1 | 9300 nm/s
107 | NC(=O)C1CCN(c2ncc(-c3ccc(Br)cc3)s2)CC1 | 6880 nm/s
